Test results: the NIST ThermoML archive (doi:10.1016/j.jct.2014.05.016)

Assay: xn = mol fraction of the nth substance listed
Settings: 100 kPa, Liquid; for viscosity: Concentric cylinders viscometry; for mass density: Vibrating tube method

C[n+]1ccn(CCO)c1.F[B-](F)(F)F [1-(2-hydroxyethyl)-3-methylimidazolium tetrafluoroborate] + CCCCn1cc[n+](C)c1.F[B-](F)(F)F
Settings	mass density [kg/m3]	viscosity [mPa·s]
293.15 K, x1 = 0.1003	–	141.5
293.15 K, x1 = 0.101	1217.5	–
293.15 K, x1 = 0.2001	–	138.1
293.15 K, x1 = 0.201	1230.9	–
293.15 K, x1 = 0.2997	–	139.6
293.15 K, x1 = 0.3002	1245.7	–
293.15 K, x1 = 0.3999	–	140.6
293.15 K, x1 = 0.4006	1261.4	–
293.15 K, x1 = 0.4996	–	138.7
293.15 K, x1 = 0.5009	1276.1	–
293.15 K, x1 = 0.5991	1292.3	143.1
293.15 K, x1 = 0.6997	–	144.7
293.15 K, x1 = 0.7001	1310.8	–
293.15 K, x1 = 0.7999	–	147.1
293.15 K, x1 = 0.8	1326.3	–
293.15 K, x1 = 0.8995	1344.4	–
293.15 K, x1 = 0.8998	–	152.3
293.15 K, x1 = 1	1362.4	153.6
298.15 K, x1 = 0.1003	–	107.8
298.15 K, x1 = 0.101	1214	–
298.15 K, x1 = 0.2001	–	105.3
298.15 K, x1 = 0.201	1227.4	–
298.15 K, x1 = 0.2997	–	106.6
298.15 K, x1 = 0.3002	1242	–
298.15 K, x1 = 0.3999	–	107.4
298.15 K, x1 = 0.4006	1257.9	–
298.15 K, x1 = 0.4996	–	105.4
298.15 K, x1 = 0.5009	1272.5	–
298.15 K, x1 = 0.5991	1288.6	108.3
298.15 K, x1 = 0.6997	–	109.3
298.15 K, x1 = 0.7001	1307.6	–
298.15 K, x1 = 0.7999	–	111.4
298.15 K, x1 = 0.8	1322.5	–
298.15 K, x1 = 0.8995	1340.6	–
298.15 K, x1 = 0.8998	–	114.1
298.15 K, x1 = 1	1358.7	115.1
303.15 K, x1 = 0.1003	–	83.64
303.15 K, x1 = 0.101	1210.4	–
303.15 K, x1 = 0.2001	–	81.83
303.15 K, x1 = 0.201	1223.9	–
303.15 K, x1 = 0.2997	–	82.64
303.15 K, x1 = 0.3002	1238.5	–
303.15 K, x1 = 0.3999	–	83.2
303.15 K, x1 = 0.4006	1254.3	–
303.15 K, x1 = 0.4996	–	81.76
303.15 K, x1 = 0.5009	1268.9	–
303.15 K, x1 = 0.5991	1284.9	83.78
303.15 K, x1 = 0.6997	–	84.42
303.15 K, x1 = 0.7001	1304.2	–
303.15 K, x1 = 0.7999	–	85.38
303.15 K, x1 = 0.8	1318.9	–
303.15 K, x1 = 0.8995	1336.9	–
303.15 K, x1 = 0.8998	–	87.51
303.15 K, x1 = 1	1354.8	87.98
308.15 K, x1 = 0.1003	–	66.1
308.15 K, x1 = 0.101	1206.9	–
308.15 K, x1 = 0.2001	–	64.77
308.15 K, x1 = 0.201	1220.5	–
308.15 K, x1 = 0.2997	–	65.41
308.15 K, x1 = 0.3002	1234.9	–
308.15 K, x1 = 0.3999	–	65.73
308.15 K, x1 = 0.4006	1250.7	–
308.15 K, x1 = 0.4996	–	64.71
308.15 K, x1 = 0.5009	1265.2	–
308.15 K, x1 = 0.5991	1281.3	66.04
308.15 K, x1 = 0.6997	–	66.38
308.15 K, x1 = 0.7001	1300.8	–
308.15 K, x1 = 0.7999	–	67.14
308.15 K, x1 = 0.8	1315.2	–
308.15 K, x1 = 0.8995	1333.1	–
308.15 K, x1 = 0.8998	–	68.51
308.15 K, x1 = 1	1351.2	68.59
313.15 K, x1 = 0.1003	–	53.11
313.15 K, x1 = 0.101	1203.3	–
313.15 K, x1 = 0.2001	–	52.17
313.15 K, x1 = 0.201	1216.9	–
313.15 K, x1 = 0.2997	–	52.58
313.15 K, x1 = 0.3002	1231.3	–
313.15 K, x1 = 0.3999	–	52.83
313.15 K, x1 = 0.4006	1247.1	–
313.15 K, x1 = 0.4996	–	51.96
313.15 K, x1 = 0.5009	1261.6	–
313.15 K, x1 = 0.5991	1277.7	52.99
313.15 K, x1 = 0.6997	–	53.19
313.15 K, x1 = 0.7001	1297.3	–
313.15 K, x1 = 0.7999	–	53.69
313.15 K, x1 = 0.8	1311.5	–
313.15 K, x1 = 0.8995	1329.4	–
313.15 K, x1 = 0.8998	–	54.68
313.15 K, x1 = 1	1347.4	54.81
318.15 K, x1 = 0.1003	–	43.44
318.15 K, x1 = 0.101	1199.8	–
318.15 K, x1 = 0.2001	–	42.58
318.15 K, x1 = 0.201	1213.5	–
318.15 K, x1 = 0.2997	–	42.92
318.15 K, x1 = 0.3002	1227.8	–
318.15 K, x1 = 0.3999	–	43.11
318.15 K, x1 = 0.4006	1243.6	–
318.15 K, x1 = 0.4996	–	42.41
318.15 K, x1 = 0.5009	1258.1	–
318.15 K, x1 = 0.5991	1274.1	43.22
318.15 K, x1 = 0.6997	–	43.31
318.15 K, x1 = 0.7001	1293.8	–
318.15 K, x1 = 0.7999	–	43.66
318.15 K, x1 = 0.8	1307.8	–
318.15 K, x1 = 0.8995	1325.7	–
318.15 K, x1 = 0.8998	–	44.39
318.15 K, x1 = 1	1343.7	44.44
323.15 K, x1 = 0.1003	–	35.84
323.15 K, x1 = 0.101	1196.3	–
323.15 K, x1 = 0.2001	–	35.27
323.15 K, x1 = 0.201	1209.9	–
323.15 K, x1 = 0.2997	–	35.51
323.15 K, x1 = 0.3002	1224.2	–
323.15 K, x1 = 0.3999	–	35.68
323.15 K, x1 = 0.4006	1240	–
323.15 K, x1 = 0.4996	–	35.08
323.15 K, x1 = 0.5009	1254.5	–
323.15 K, x1 = 0.5991	1270.4	35.69
323.15 K, x1 = 0.6997	–	35.78
323.15 K, x1 = 0.7001	1290.3	–
323.15 K, x1 = 0.7999	–	36.02
323.15 K, x1 = 0.8	1304.1	–
323.15 K, x1 = 0.8995	1322	–
323.15 K, x1 = 0.8998	–	36.55
323.15 K, x1 = 1	1340.1	36.5
328.15 K, x1 = 0.1003	–	29.96
328.15 K, x1 = 0.101	1192.8	–
328.15 K, x1 = 0.2001	–	29.52
328.15 K, x1 = 0.201	1206.5	–
328.15 K, x1 = 0.2997	–	29.75
328.15 K, x1 = 0.3002	1220.7	–
328.15 K, x1 = 0.3999	–	29.9
328.15 K, x1 = 0.4006	1236.4	–
328.15 K, x1 = 0.4996	–	29.42
328.15 K, x1 = 0.5009	1250.9	–
328.15 K, x1 = 0.5991	1266.8	29.91
328.15 K, x1 = 0.6997	–	29.95
328.15 K, x1 = 0.7001	1286.7	–
328.15 K, x1 = 0.7999	–	30.13
328.15 K, x1 = 0.8	1300.5	–
328.15 K, x1 = 0.8995	1318.3	–
328.15 K, x1 = 0.8998	–	30.58
328.15 K, x1 = 1	1336.4	30.46
333.15 K, x1 = 0.1003	–	25.35
333.15 K, x1 = 0.101	1189.3	–
333.15 K, x1 = 0.2001	–	25.03
333.15 K, x1 = 0.201	1203	–
333.15 K, x1 = 0.2997	–	25.2
333.15 K, x1 = 0.3002	1217.2	–
333.15 K, x1 = 0.3999	–	25.27
333.15 K, x1 = 0.4006	1232.9	–
333.15 K, x1 = 0.4996	–	24.96
333.15 K, x1 = 0.5009	1247.6	–
333.15 K, x1 = 0.5991	1263.2	25.36
333.15 K, x1 = 0.6997	–	25.41
333.15 K, x1 = 0.7001	1283.1	–
333.15 K, x1 = 0.7999	–	25.55
333.15 K, x1 = 0.8	1296.8	–
333.15 K, x1 = 0.8995	1314.7	–
333.15 K, x1 = 0.8998	–	25.83
333.15 K, x1 = 1	1332.8	25.73
338.15 K, x1 = 0.1003	–	21.68
338.15 K, x1 = 0.101	1185.9	–
338.15 K, x1 = 0.2001	–	21.42
338.15 K, x1 = 0.201	1199.5	–
338.15 K, x1 = 0.2997	–	21.57
338.15 K, x1 = 0.3002	1213.7	–
338.15 K, x1 = 0.3999	–	21.63
338.15 K, x1 = 0.4006	1229.4	–
338.15 K, x1 = 0.4996	–	21.39
338.15 K, x1 = 0.5009	1244.1	–
338.15 K, x1 = 0.5991	1259.7	21.68
338.15 K, x1 = 0.6997	–	21.72
338.15 K, x1 = 0.7001	1279.5	–
338.15 K, x1 = 0.7999	–	21.81
338.15 K, x1 = 0.8	1293.2	–
338.15 K, x1 = 0.8995	1311.1	–
338.15 K, x1 = 0.8998	–	22.08
338.15 K, x1 = 1	1329.2	21.98
343.15 K, x1 = 0.1003	–	18.71
343.15 K, x1 = 0.101	1182.4	–
343.15 K, x1 = 0.2001	–	18.51
343.15 K, x1 = 0.201	1196	–
343.15 K, x1 = 0.2997	–	18.64
343.15 K, x1 = 0.3002	1210.3	–
343.15 K, x1 = 0.3999	–	18.68
343.15 K, x1 = 0.4006	1225.9	–
343.15 K, x1 = 0.4996	–	18.5
343.15 K, x1 = 0.5009	1240.6	–
343.15 K, x1 = 0.5991	1256.2	18.74
343.15 K, x1 = 0.6997	–	18.78
343.15 K, x1 = 0.7001	1276	–
343.15 K, x1 = 0.7999	–	18.84
343.15 K, x1 = 0.8	1289.7	–
343.15 K, x1 = 0.8995	1307.5	–
343.15 K, x1 = 0.8998	–	19.06
343.15 K, x1 = 1	1325.5	18.95
